Measurements published in PubChem BioAssay AID330 (DTP/NCI, 2004).
Several values for one entry are separate records, joined by “and”; a condition that tells them apart may be missing. Equal entries are not always repeated. Toxic doses and inconclusive results are not listed. The calls were made as follows: active = survival T/C of 150% or more; inactive = T/C below 125% in these data.

Tested on: P388 leukemia ip, CD2F1 mice, survival T/C
Test: NCI In Vivo Anticancer Drug Screen. Data for tumor model P388 Leukemia (intraperitoneal) in CD2F1 (CDF1) mice
Conditions: endpoint: median survival time, higher = longer survival
Summary of the method: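 Mice carrying the transplanted tumor received test compound or vehicle. Survival was recorded in each group, and the value is the treated-group measurement divided by that of the vehicle-treated control group.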

[1] = dose: 50.0 mg/kg/injection, schedule: Q01DX005 (ip), vehicle: saline with Tween-80
[2] = dose: 50.0 mg/kg/injection, schedule: Q01DX009 (ip), vehicle: saline with Tween-80
[3] = dose: 100.0 mg/kg/injection, schedule: Q01DX009 (ip), vehicle: saline with Tween-80
[4] = dose: 200.0 mg/kg/injection, schedule: Q01DX009 (ip), vehicle: saline with Tween-80
[5] = dose: 25.0 mg/kg/injection, schedule: Q01DX009 (ip), vehicle: Klucel (hydroxypropylcellulose) (HPC)
[6] = dose: 50.0 mg/kg/injection, schedule: Q01DX009 (ip), vehicle: Klucel (hydroxypropylcellulose) (HPC)
[7] = dose: 100.0 mg/kg/injection, schedule: Q01DX009 (ip), vehicle: Klucel (hydroxypropylcellulose) (HPC)
[8] = dose: 60.0 mg/kg/injection, schedule: Q01DX005 (ip), vehicle: saline with Tween-80
[9] = dose: 120.0 mg/kg/injection, schedule: Q01DX005 (ip), vehicle: saline with Tween-80
[10] = dose: 240.0 mg/kg/injection, schedule: Q01DX005 (ip), vehicle: saline with Tween-80
[11] = dose: 6.25 mg/kg/injection, schedule: Q01DX009 (ip), vehicle: saline
[12] = dose: 12.5 mg/kg/injection, schedule: Q01DX009 (ip), vehicle: saline

Measured: T/C

C/C(=N\NC(=S)N(C)C)c1cnccn1
inactive: dose: 12.5 mg/kg/injection, schedule: Q01DX005 (ip), vehicle: saline with Tween-80 102 % of control | dose: 25.0 mg/kg/injection, schedule: Q01DX005 (ip), vehicle: saline with Tween-80 100 % of control | [1] 98 % of control and 101 % of control

CCC[CH2][Pb]([CH2]CCC)([O]C(C)=O)[O]C(C)=O
inactive: dose: 1.56 mg/kg/injection, schedule: Q04DX003 (ip), vehicle: saline 114 % of control | dose: 3.13 mg/kg/injection, schedule: Q04DX003 (ip), vehicle: saline 118 % of control | dose: 6.25 mg/kg/injection, schedule: Q04DX003 (ip), vehicle: saline 120 % of control

N#Cc1cnn(-c2cc(Cl)ccc2Cl)c1N
inactive: [2] 99 % of control and 95 % of control and 98 % of control | [3] 101 % of control and 103 % of control and 92 % of control | [4] 104 % of control and 105 % of control and 123 % of control

O=S(=O)(NN=C(c1ccccc1)c1ccccc1)c1ccccc1
inactive: [5] 99 % of control | [6] 93 % of control | [7] 101 % of control | dose: 200.0 mg/kg/injection, schedule: Q01DX009 (ip), vehicle: Klucel (hydroxypropylcellulose) (HPC) 106 % of control | dose: 400.0 mg/kg/injection, schedule: Q01DX009 (ip), vehicle: Klucel (hydroxypropylcellulose) (HPC) 90 % of control

O=S(=O)(Cl)c1ccccc1 (tested in a mixture with another compound)
inactive: [8] 104 % of control | [9] 99 % of control | [10] 99 % of control

CCCCCCCCCCCCCC[N+]1(CC)CCOCC1
inactive: dose: 3.12 mg/kg/injection, schedule: Q01DX009 (ip), vehicle: saline 119 % of control | [11] 115 % of control | [12] 123 % of control

O=[N+]([O-])c1cc(Cl)c(Cl)cc1Cl
inactive: [2] 109 % of control | [3] 100 % of control | [4] 104 % of control

C1CCC(NC2CCCCC2)CC1
inactive: dose: 12.5 mg/kg/injection, schedule: Q01DX005 (ip), vehicle: saline 103 % of control | dose: 23.7 mg/kg/injection, schedule: Q01DX005 (ip), vehicle: saline 100 % of control | dose: 25.0 mg/kg/injection, schedule: Q01DX005 (ip), vehicle: saline 102 % of control | dose: 35.6 mg/kg/injection, schedule: Q01DX005 (ip), vehicle: saline 100 % of control | dose: 50.0 mg/kg/injection, schedule: Q01DX005 (ip), vehicle: saline 100 % of control | dose: 53.3 mg/kg/injection, schedule: Q01DX005 (ip), vehicle: saline 100 % of control | dose: 80.0 mg/kg/injection, schedule: Q01DX005 (ip), vehicle: saline 100 % of control | dose: 100.0 mg/kg/injection, schedule: Q01DX005 (ip), vehicle: saline 93 % of control | dose: 200.0 mg/kg/injection, schedule: Q01DX005 (ip), vehicle: saline 102 % of control

COc1c(OC)c(C2(O)C(=O)N(C)c3ccccc32)c(OC)c(OC)c1C1(O)C(=O)N(C)c2ccccc21 (centres undefined)
inactive: [8] 88 % of control | [9] 87 % of control | [10] 87 % of control

C[n+]1c(-c2cccc(-c3ccccc3)c2)c2cc([N+](=O)[O-])ccc2c2ccccc21
inactive: dose: 1.56 mg/kg/injection, schedule: Q01DX009 (ip), vehicle: Klucel (hydroxypropylcellulose) (HPC) 103 % of control | dose: 3.13 mg/kg/injection, schedule: Q01DX009 (ip), vehicle: Klucel (hydroxypropylcellulose) (HPC) 103 % of control | dose: 6.25 mg/kg/injection, schedule: Q01DX009 (ip), vehicle: Klucel (hydroxypropylcellulose) (HPC) 106 % of control | dose: 12.5 mg/kg/injection, schedule: Q01DX009 (ip), vehicle: Klucel (hydroxypropylcellulose) (HPC) 111 % of control | [5] 109 % of control

O=C(COc1ccc([N+](=O)[O-])cc1)Nc1cccnc1
inactive: dose: 50.0 mg/kg/injection, schedule: Q04DX003 (ip), vehicle: saline with Tween-80 98 % of control | dose: 100.0 mg/kg/injection, schedule: Q04DX003 (ip), vehicle: saline with Tween-80 98 % of control | dose: 200.0 mg/kg/injection, schedule: Q04DX003 (ip), vehicle: saline with Tween-80 99 % of control

N#CC(C#N)=Cc1cc2c3c(c1)CCCN3CCC2
inactive: dose: 100.0 mg/kg/injection, schedule: Q01DX001 (ip), vehicle: saline with Tween-80 100 % of control | dose: 200.0 mg/kg/injection, schedule: Q01DX001 (ip), vehicle: saline with Tween-80 100 % of control | dose: 400.0 mg/kg/injection, schedule: Q01DX001 (ip), vehicle: saline with Tween-80 90 % of control

CCC[N+]12CC=C3COC(=O)C(C)(O)C(C)(O)C(C)C(=O)OC(CC1)C32 (centres undefined)
inactive: dose: 60.0 mg/kg/injection, schedule: Q01DX005 (ip), vehicle: saline 100 % of control | dose: 120.0 mg/kg/injection, schedule: Q01DX005 (ip), vehicle: saline 105 % of control | dose: 240.0 mg/kg/injection, schedule: Q01DX005 (ip), vehicle: saline 98 % of control

CCC(=O)N1C(=O)C(C)C23c4cccc([N+](=O)[O-])c4C(=O)N2CCCN13 (centres undefined)
inactive: dose: 60.0 mg/kg/injection, schedule: Q01DX005 (ip), vehicle: Klucel (hydroxypropylcellulose) (HPC) 100 % of control | dose: 120.0 mg/kg/injection, schedule: Q01DX005 (ip), vehicle: Klucel (hydroxypropylcellulose) (HPC) 97 % of control | dose: 240.0 mg/kg/injection, schedule: Q01DX005 (ip), vehicle: Klucel (hydroxypropylcellulose) (HPC) 93 % of control

Cc1nn(C(=O)c2ccncc2)c(C)c1N=Nc1ccc(S(=O)(=O)Nc2nccs2)cc1
inactive: dose: 100.0 mg/kg/injection, schedule: Q04DX003 (ip), vehicle: saline 96 % of control | dose: 200.0 mg/kg/injection, schedule: Q04DX003 (ip), vehicle: saline 97 % of control | dose: 400.0 mg/kg/injection, schedule: Q04DX003 (ip), vehicle: saline 110 % of control

CCN(CC)C(=O)c1c(Cl)c(Cl)c(Cl)c(Cl)c1C(=O)O
inactive: [2] 112 % of control | [3] 96 % of control | [4] 96 % of control | dose: 400.0 mg/kg/injection, schedule: Q01DX009 (ip), vehicle: saline with Tween-80 102 % of control

CC1(C)OC2COC3OC(C)(C)OC3(/C=N\NC(=O)c3cc4ccccc4[nH]3)C2O1 (centres undefined)
inactive: dose: 50.0 mg/kg/injection, schedule: Q01DX005 (ip), vehicle: Klucel (hydroxypropylcellulose) (HPC) 98 % of control | dose: 100.0 mg/kg/injection, schedule: Q01DX005 (ip), vehicle: Klucel (hydroxypropylcellulose) (HPC) 104 % of control | dose: 200.0 mg/kg/injection, schedule: Q01DX005 (ip), vehicle: Klucel (hydroxypropylcellulose) (HPC) 102 % of control

O=C(NN1C(=O)CS(=O)(=O)C1c1ccc(Cl)cc1Cl)c1ccncc1 (centres undefined)
inactive: [1] 100 % of control | dose: 100.0 mg/kg/injection, schedule: Q01DX005 (ip), vehicle: saline with Tween-80 100 % of control | dose: 200.0 mg/kg/injection, schedule: Q01DX005 (ip), vehicle: saline with Tween-80 102 % of control

O=C(O)C[n+]1ccccc1
inactive: [11] 103 % of control | [12] 101 % of control and 94 % of control | dose: 25.0 mg/kg/injection, schedule: Q01DX009 (ip), vehicle: saline 105 % of control | dose: 50.0 mg/kg/injection, schedule: Q01DX009 (ip), vehicle: saline 101 % of control | dose: 100.0 mg/kg/injection, schedule: Q01DX009 (ip), vehicle: saline 97 % of control

O=C1c2ccccc2C(=O)C1(Br)C(Cl)c1ccccc1 (centres undefined)
inactive: [6] 90 % of control | [7] 95 % of control | dose: 100.0 mg/kg/injection, schedule: Q04DX003 (ip), vehicle: Klucel (hydroxypropylcellulose) (HPC) 104 % of control | dose: 200.0 mg/kg/injection, schedule: Q04DX003 (ip), vehicle: Klucel (hydroxypropylcellulose) (HPC) 100 % of control
